Laboratory results from US20260325655A1, “DECREASING THE INTRINSICALLY DISORDERED PROTEIN ALPHA-SYNUCLEIN’S LEVELS BY TARGETING ITS STRUCTURED MRNA WITH A RIBONUCLEASE TARGETING CHIMERA” (University of Florida Research Foundation, Incorporated, priority 2023, published 2026).

Tests used:
fully base paired RNA = assay: MST binding to fully base paired control RNA; settings: microscale thermophoresis
Description: (§1) Binding Affinity Measurements: Microscale Thermophoresis (MST). Binding affinity measurements were performed on a Monolith NT.115 MST system (NanoTemper Technologies) with Cy5-labeled oligonucleotides. Briefly, Cy5-labeled RNA (5 nM) was prepared in 1× Folding Buffer and folded by heating at 60° C. for 5 min and then slowly cooling to room temperature. After cooling, Tween-20 was added to a final concentration of 0.1% (v/v). Compound solutions were prepared separately in 30 μL of 1× Assay Buffer at a final concentration of 5 μM (1% (v/v) DMSO), followed by 1:1 serial dilutions in 1× Assay Buffer. RNA and compound solutions were then mixed 1:1 by volume.
(§2) Samples were incubated for 20 min at room temperature and then loaded into premium capillaries (NanoTemper Technologies, Cat #MO-K025). The following parameters were used for MST measurement: 5-20% LED power (adjusted to keep fluorescence intensity between 8000 and 18000), 80% MST power, Laser-On time=30 s, and Laser-Off time=5 s. The resulting data were analyzed by calculating the change in thermophoresis as a function of compound concentration and fitted by Equation (3) in MST analysis software (NanoTemper Technologies) to yield the dissociation constant (Kd):
(§3) where F is the concentration of fluorescently labeled RNA; unbound and bound refer to the thermophoresis signal at completely unbound and bound state of RNA, respectively; c is the concentration of the compound; f (c) is the thermophoresis signal at compound concentration of c; Kd is the dissociation constant.

SNCA IRE = assay: MST binding affinity for SNCA IRE (A bulge model RNA); settings: microscale thermophoresis; Cy5-labeled RNA
Description: as §1, §2, §3

[1] = test system: control luciferase reporter lacking an IRE; assay: control luciferase reporter lacking an IRE; type: cell-based, human; settings: reporter lacks IRE / SNCA-UTR sequence
Source text: Plasmid constructs and establishment of reporter gene overexpressing cells. Construction of pIRES-Luc-EGFP-puro plasmid and pCDH-α-syn-5′-UTR-Luc-EGFP-puro plasmid used in 5′ UTR-luciferase-based selectivity assay were previously described.^4 Briefly, In-Fusion PCR cloning system (Takara Bio, Mountain View, CA, USA) was used for all plasmid constructions per the manufacturer's instructions. To ensure sequence accuracy, all plasmids generated in this study were confirmed by sequencing.
Luciferase assay. The effect of compounds on translation of SNCA IRE-containing transcript was measured by using a luciferase reporter assay. HeLa cells (~60% confluency) were transfected with plasmids (2 μg per 60 mm dish) by using JetPrime (Polyplus Transfection) according to the manufacturer's recommended procedures. Approximately 16 h after transfection, the transfection cocktail was removed, and the cells were trypsinized and seeded to 96-well plates (8,000 cells per well). After 6 h, cells were treated as described in Cell Culture. To measure the luciferase signals, the cells were then washed with 1× DPBS, and luciferase activity in each well was measured by using the ONE-Glo Luciferase Assay System (Promega) per the manufacturer's instructions. Luminescence from firefly luciferase reaction was measured using a Biomek FLx800 plate reader.

APP mRNA = APP mRNA in SH-SY5Y cells by RT-qPCR; type: cell-based, human
Description: RNA extraction and reverse transcription-quantitative polymerase chain reaction (RT-qPCR). Total RNA was extracted from cells using a Quick-RNA MiniPrep Kit (Zymo Research) per the manufacturer's protocol including DNase treatment. For each sample, 200 ng of RNA was reverse transcribed into cDNA by using a qScript cDNA Synthesis Kit (QuantaBio) according to the manufacturer's instructions. To assess the relative mRNA levels, RT-qPCR was performed in triplicate using SYBR Green PCR mater mix (Applied Biosystems) with a Quant Studio 5 Real-Time PCR system. The relative levels of mRNA were calculated by using the ΔΔCt method as previously described.^8

binding towards the fully base paired RNA (fully base paired RNA)	Kd (SNCA IRE)	inhibition in the control luciferase reporter [1]	SMILES	effect on APP mRNA level (APP mRNA)
no saturable binding	66 ± 4 nM	–	O=C(CSc1nnc(-c2ccncc2)n1-c1ccc(Br)cc1)Nc1ccc2cn[nH]c2c1 [Synucleozid-2.0]	–
no saturable binding	103 ± 10 nM	Neither compound showed inhibition	CCOC(=O)C1=C(Nc2ccccc2)S/C(=C\c2ccc(OCCOCCOCCOCCNC(=O)CCCOc3ccc(-n4c(SCC(=O)Nc5ccc6cn[nH]c6c5)nnc4-c4ccncc4)cc3)c(O)c2)C1=O [Syn-RiboTAC]	None of the three transcripts was affected
